Data published in patent US7745393B2, “Minimalist bZIP proteins and uses thereof” (priority 2005, dated 2010).
Entries after “also recorded” stand apart in the source; their conditions may differ.

Assays:
[1] = target: E-box; conditions: high-salt conditions, in vitro; cited from earlier work
[2] = tested on: E-box; test: LacZ colony-lift filter assay (X-gal); format: cell-based, S. cerevisiae; parameters: key to Colony-lift: +: blue; −: white; conditions: for Colony-lift: LacZ-based X-gal colony-lift filter assay, blue/white screen; for colony-lift filter assay binding (color): X-gal substrate
Excerpt: (§1) A modified yeast one-hybrid system (Y1H) (Wang MM and Reed RR. 1993, Nature, 364, 121) was used to examine the E-box binding activity of the hybrids in vivo. Two S. cerevisiae reporter strains were constructed: four tandem copies of the E-box were cloned upstream of either the his3 or LacZ reporters. In the his3 assay, the His3 protein is expressed upon binding of our hybrids at E-box, allowing yeast to survive under histidine auxotrophy (FIG. 6). Surviving colonies are visualized on plates with media lacking histidine and in the presence of 3-aminotriazole (3-AT), a competitive inhibitor of His3 that reduces background growth. Yeast was plated on 10-60 mM 3-AT as a qualitative test of binding strength to E-box. Hybrids were also tested by two assays based on the LacZ reporter, which encodes β-galactosidase. (Serebriiskii, I. G. and Golemis, E. A. 2000 Anal. Biochem. 285, 1. The qualitative colony-lift filter assay uses X-gal as substrate for calorimetric visualization of protein-DNA binding (FIG. 7). Positives display vivid blue color. The ortho-nitrophenyl-β-galactoside (ONPG) liquid assay is quantitative (FIG. 8). However, this assay is not sensitive enough to quantify weak interactions accurately, (Mökli, N. and Auerbach, D. 2004 BioTechniques 36, 872) so the far more sensitive colony-lift assay is also typically performed.

[3] = tested on: E-box; test: LacZ ONPG liquid assay (β-galactosidase); format: cell-based, S. cerevisiae; conditions: for β-galactosidase activity: ONPG assay, FIG. 8, averages of nine to twelve measurements
Excerpt: The measurement of binding of the minimalist bZIP proteins to the target DNA sequence is a LacZ-based quantitative assay using ortho-nitrophenyl-beta-galactoside as calorimetric substrate (ONPG). Minimalist bZIP proteins with ONPG values exceeding 10 beta-galactosidase units are considered to be good binders to the target DNA sequence. Minimalist bZIP proteins with ONPG values below 10 beta-galactosidase units are ideal for selection and evolution,
as §1

[4] = tested on: E-box target, 5′-CACGTG; test: yeast one-hybrid his3 reporter assay (colony growth on SD/-His/-Leu with 3-AT); format: cell-based, Saccharomyces cerevisiae; parameters: key to his3: +: positive; −: negative; conditions: for his3 assay binding/colony growth: 30° C.; for binding to E-box / colony growth in yeast one-hybrid assay: 3-AT concentration not stated; for his3: positive/negative colony growth in yeast cells on plates
Excerpt: A reporter strain was constructed such that the E-box target, 5′-CACGTG, resides upstream of the HIS3 reporter gene. The bHLH/bZIP hybrid was fused to the GAL4 transcriptional activation domain so that if a hybrid binds the E-box, the HIS3 protein will be expressed, thus allowing yeast to survive under conditions of histidine auxotrophy. Four tandem copies of the E-box (as shown in Table 9) were cloned into the pHISi-1 integrating reporter vector (Matchmaker One-Hybrid System, Clontech). After insertion of the E-box insert, the pHISi-1 vector was linearized and incorporated into the yeast genome by homologous recombination to generate Saccharomyces cerevisiae YM4271[pHISi-1/E-box]. To assess background due to the reporter, 3-aminotriazole (3-AT) was used as a competitive inhibitor of the HIS3 protein. Because it is possible that the reporter may be activated by endogenous factors, YM4271[pHISi-1/E-box] was subjected to titration with varying amounts of 3-AT to measure the concentration of 3-AT sufficient for suppression of background growth.
Transformation of the yeast cells was performed by electroporation. Following electroporation, cells were plated on minimal selective medium lacking leucine and histidine with the appropriate amount of 3-AT to suppress background.
as §1

For “Arnt bHLH: Arnt bHLH alone (56 amino acids), literature, Huffman et al. 2001”, the Kd [1] is listed as 56.2 ± 11.7 nM.

In the case of “Max-C/EBP: Max basic region, RIR linker, C/EBP leucine zipper; SEQ ID NO. 52, same sequence as SEQ ID No. 1 (ADKRAHHNALERKRRDHIKDSFHSRIRLEQKVLELTSDNDRLRKRVEQLSRELDTL; fusion protein)”, the Colony-lift [2] is reported as “−”, the “colony-lift filter assay binding (color)” value [2] is reported as “no binding (clear)” and the ONPG ([3]; Table 11) is reported as 2.2 ± 0.2 β-galactosidase units. The “his3 assay binding/colony growth” value ([4]; 10 mM 3-AT) was “no binding”, the “his3 assay binding/colony growth” value ([4]; 10 mM 3-AT, listed as Max/C-EBP) was “Binding undetectable” and the “binding to E-box / colony growth in yeast one-hybrid assay” value [4] was “undetectable”. The his3 [4] was “−”.

In the case of “native Max bHLHZ: native Max bHLHZ (residues 22-113, 92 amino acids), positive control”, the Colony-lift [2] is reported as “+”, the “colony-lift filter assay binding (color)” value ([2]; listed as Max bHLHZ) is reported as “intense blue color; also recorded: positive binding (dark blue)” and the “colony-lift filter assay binding (color)” value ([2]; listed as Native Max bHLHZ) is reported as “positive binding (dark blue)”. For the same molecule, the β-galactosidase activity [3] was 26.4±7.7, the ONPG ([3]; Table 11) was 26.4 ± 7.7 β-galactosidase units and the ONPG ([3]; Table 12) was 26.41 ± 7.73. The “his3 assay binding/colony growth” value ([4]; 20 mM 3-AT) was “strong binding/colony growth”, the “his3 assay binding/colony growth” value ([4]; 60 mM 3-AT, listed as Max bHLHZ) was “good colony growth” and the “his3 assay binding/colony growth” value ([4]; 60 mM 3-AT, listed as Native Max bHLHZ) was “strong binding/colony growth”. The his3 [4] was “+”.

B1: Arnt1-C/EBP: Arnt basic region, RIR linker, C/EBP leucine zipper; SEQ ID No. 7 (protein)
chain: KFLRCDDDQMSNDKERFARENHSEIERRRRNKMTAYITERIRLEQKVLELTSDNDRLRKRVEQLSRELDTL
modifications: fusion protein
In the case of B1, the “his3 assay binding/colony growth” value ([4]; 10 mM 3-AT) is reported as “able to bind to the E-box target DNA sequence”.

B2: Arnt-C/EBP: Arnt basic region and a portion of Helix 1 directly fused to the C/EBP zipper (protein)
chain: DQMSNDKERFARENHSEIERRRRNKMTAYITELSRIRLEQKVLELTSDNDRLRKRVEQLSRELDTL
modifications: Arnt-C/EBP
notes: Arnt basic region and a portion of Helix 1 directly fused to the C/EBP zipper
In the case of B2, the “colony-lift filter assay binding (color)” value [2] is reported as “extremely pale color; also recorded: no binding (clear)”, the β-galactosidase activity [3] is reported as 2.9±0.3 and the “binding to E-box / colony growth in yeast one-hybrid assay” value [4] is reported as “no colony growth”.
